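48-hour exposure; five concentrations; linearly interpolated endpoints. GI50 marks 50% less growth. TGI marks complete inhibition of growth.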
What was measured:
Experiment in all cases: NCI-60 cell line screen, 48 h
786-0 renal = test system: 786-0 renal
A498 renal = test system: A498 renal
A549 NSCLC = test system: A549 NSCLC
ACHN renal = test system: ACHN renal
BT-549 breast = test system: BT-549 breast
CAKI-1 renal = test system: CAKI-1 renal
CCRF-CEM leukemia = test system: CCRF-CEM leukemia
COLO 205 colon = test system: COLO 205 colon
DU-145 prostate = test system: DU-145 prostate
EKVX NSCLC = test system: EKVX NSCLC
HCC-2998 colon = test system: HCC-2998 colon
HCT-116 colon = test system: HCT-116 colon
HCT-15 colon = test system: HCT-15 colon
HOP-62 NSCLC = test system: HOP-62 NSCLC
HOP-92 NSCLC = test system: HOP-92 NSCLC
HS 578T breast = test system: HS 578T breast
HT29 colon = test system: HT29 colon
IGROV1 ovarian = test system: IGROV1 ovarian
KM12 colon = test system: KM12 colon
LOX IMVI melanoma = test system: LOX IMVI melanoma
M14 melanoma = test system: M14 melanoma
MALME-3M melanoma = test system: MALME-3M melanoma
MCF7 breast = test system: MCF7 breast
MDA-MB-231 breast = test system: MDA-MB-231 breast
MDA-MB-435 = test system: MDA-MB-435
NCI-H226 lung = test system: NCI-H226 lung
NCI-H460 lung = test system: NCI-H460 lung
NCI-H522 lung = test system: NCI-H522 lung
NCI/ADR-RES ovarian = test system: NCI/ADR-RES ovarian
OVCAR-3 ovarian = test system: OVCAR-3 ovarian
OVCAR-4 ovarian = test system: OVCAR-4 ovarian
OVCAR-5 ovarian = test system: OVCAR-5 ovarian
OVCAR-8 ovarian = test system: OVCAR-8 ovarian
PC-3 prostate = test system: PC-3 prostate
RPMI-8226 leukemia = test system: RPMI-8226 leukemia
RXF 393 renal = test system: RXF 393 renal
SF-268 CNS = test system: SF-268 CNS
SF-295 CNS = test system: SF-295 CNS
SF-539 CNS = test system: SF-539 CNS
SK-MEL-2 melanoma = test system: SK-MEL-2 melanoma
SK-MEL-28 melanoma = test system: SK-MEL-28 melanoma
SK-MEL-5 melanoma = test system: SK-MEL-5 melanoma
SK-OV-3 ovarian = test system: SK-OV-3 ovarian
SN12C renal = test system: SN12C renal
SNB-19 CNS = test system: SNB-19 CNS
SNB-75 CNS = test system: SNB-75 CNS
SR leukemia = test system: SR leukemia
T-47D breast = test system: T-47D breast
TK-10 renal = test system: TK-10 renal
U251 CNS = test system: U251 CNS
UACC-257 melanoma = test system: UACC-257 melanoma
UACC-62 melanoma = test system: UACC-62 melanoma
UO-31 renal = test system: UO-31 renal

For `CC(C)(O)c1cncc(-c2ccc3ncnc(N4CCc5cc(F)c(Cl)cc54)c3c2)c1`, the GI50 (786-0 renal) was 722 nM, the TGI (786-0 renal) was 75400 nM and the GI50 (A498 renal) was 197 nM. For the same molecule, the TGI (A498 renal) was 1170 nM, the GI50 (A549 NSCLC) was 773 nM and the TGI (A549 NSCLC) was greater than 100000 nM. It also gave a GI50 (ACHN renal) of 572 nM, a TGI (ACHN renal) greater than 100000 nM and a GI50 (BT-549 breast) of 1220 nM. The TGI (BT-549 breast) was 8890 nM, the GI50 (CAKI-1 renal) was 388 nM and the TGI (CAKI-1 renal) was greater than 100000 nM. For the same molecule, the GI50 (CCRF-CEM leukemia) was 2320 nM, the TGI (CCRF-CEM leukemia) was greater than 100000 nM and the GI50 (COLO 205 colon) was 3520 nM. The TGI (COLO 205 colon) was greater than 100000 nM, the GI50 (DU-145 prostate) was 1490 nM and the TGI (DU-145 prostate) was greater than 100000 nM. It also gave a GI50 (EKVX NSCLC) of 520 nM, a TGI (EKVX NSCLC) of 9120 nM and a GI50 (HCC-2998 colon) of 2360 nM. For the same molecule, the TGI (HCC-2998 colon) was greater than 100000 nM, the GI50 (HCT-116 colon) was 2350 nM and the TGI (HCT-116 colon) was greater than 100000 nM. For the same molecule, the GI50 (HCT-15 colon) was 1110 nM, the TGI (HCT-15 colon) was greater than 100000 nM and the GI50 (HOP-62 NSCLC) was 1190 nM. For the same molecule, the TGI (HOP-62 NSCLC) was greater than 100000 nM, the GI50 (HOP-92 NSCLC) was 151 nM and the TGI (HOP-92 NSCLC) was 827 nM. It also gave a GI50 (HS 578T breast) of 754 nM, a TGI (HS 578T breast) of 11700 nM and a GI50 (HT29 colon) of 908 nM. The TGI (HT29 colon) was greater than 100000 nM, the GI50 (IGROV1 ovarian) was 235 nM and the TGI (IGROV1 ovarian) was 1300 nM. For the same molecule, the GI50 (KM12 colon) was 5860 nM, the TGI (KM12 colon) was greater than 100000 nM and the TGI (LOX IMVI melanoma) was 65100 nM. It also gave a GI50 (M14 melanoma) of 4890 nM, a TGI (M14 melanoma) greater than 100000 nM and a GI50 (MALME-3M melanoma) of 1520 nM. The TGI (MALME-3M melanoma) was greater than 100000 nM, the GI50 (MCF7 breast) was 349 nM and the TGI (MCF7 breast) was greater than 100000 nM. For the same molecule, the GI50 (MDA-MB-231 breast) was 1500 nM, the TGI (MDA-MB-231 breast) was greater than 100000 nM and the GI50 (MDA-MB-435) was 2630 nM. It also gave a TGI (MDA-MB-435) greater than 100000 nM, a GI50 (NCI-H226 lung) of 3460 nM and a TGI (NCI-H226 lung) greater than 100000 nM. It also gave a GI50 (NCI-H460 lung) of 1330 nM, a TGI (NCI-H460 lung) greater than 100000 nM and a GI50 (NCI-H522 lung) of 1870 nM. For the same molecule, the TGI (NCI-H522 lung) was 85200 nM, the GI50 (NCI/ADR-RES ovarian) was 1590 nM and the TGI (NCI/ADR-RES ovarian) was greater than 100000 nM. It also gave a GI50 (OVCAR-3 ovarian) of 2270 nM, a TGI (OVCAR-3 ovarian) greater than 100000 nM and a GI50 (OVCAR-4 ovarian) of 1350 nM. It also gave a TGI (OVCAR-4 ovarian) greater than 100000 nM, a GI50 (OVCAR-5 ovarian) of 1170 nM and a TGI (OVCAR-5 ovarian) greater than 100000 nM. The GI50 (OVCAR-8 ovarian) was 2590 nM, the TGI (OVCAR-8 ovarian) was greater than 100000 nM and the GI50 (PC-3 prostate) was 775 nM. It also gave a TGI (PC-3 prostate) greater than 100000 nM, a GI50 (RPMI-8226 leukemia) of 1990 nM and a TGI (RPMI-8226 leukemia) greater than 100000 nM. It also gave a GI50 (RXF 393 renal) of 432 nM, a TGI (RXF 393 renal) of 3070 nM and a GI50 (SF-268 CNS) of 3220 nM. The TGI (SF-268 CNS) was greater than 100000 nM, the GI50 (SF-295 CNS) was 1140 nM and the TGI (SF-295 CNS) was 23100 nM. The GI50 (SF-539 CNS) was 1960 nM, the TGI (SF-539 CNS) was 84500 nM and the GI50 (SK-MEL-2 melanoma) was 4890 nM. The TGI (SK-MEL-2 melanoma) was 66600 nM, the GI50 (SK-MEL-28 melanoma) was 2980 nM and the TGI (SK-MEL-28 melanoma) was greater than 100000 nM. For the same molecule, the GI50 (SK-MEL-5 melanoma) was 2940 nM, the TGI (SK-MEL-5 melanoma) was greater than 100000 nM and the GI50 (SK-OV-3 ovarian) was 649 nM. The TGI (SK-OV-3 ovarian) was 12200 nM, the GI50 (SN12C renal) was 749 nM and the TGI (SN12C renal) was greater than 100000 nM. The GI50 (SNB-19 CNS) was 2510 nM, the TGI (SNB-19 CNS) was greater than 100000 nM and the GI50 (SNB-75 CNS) was 407 nM. For the same molecule, the TGI (SNB-75 CNS) was 15200 nM, the GI50 (SR leukemia) was 1520 nM and the TGI (SR leukemia) was greater than 100000 nM. The GI50 (T-47D breast) was 236 nM, the TGI (T-47D breast) was 4080 nM and the GI50 (TK-10 renal) was 417 nM. The TGI (TK-10 renal) was greater than 100000 nM, the GI50 (U251 CNS) was 6750 nM and the TGI (U251 CNS) was greater than 100000 nM. For the same molecule, the GI50 (UACC-257 melanoma) was 3960 nM, the TGI (UACC-257 melanoma) was greater than 100000 nM and the GI50 (UACC-62 melanoma) was 543 nM. For the same molecule, the TGI (UACC-62 melanoma) was greater than 100000 nM, the GI50 (UO-31 renal) was 184 nM and the TGI (UO-31 renal) was 74200 nM.

Reference: PubChem BioAssay (NCI)
